# Data: ChEMBL document CHEMBL5120821, “Diterpenoids from Sauropus spatulifolius Leaves with Antimicrobial Activities” (2022)
# Calls of active or inactive are those of the source. The calls are words filed in the database; no cut-off is given here.
# Key:
# Micrococcus luteus = test: Antibacterial activity against Micrococcus luteus ATCC 9341 assessed as bacterial growth inhibition incubated for 18 hrs by microdilution method; assay type: functional
# Shigella flexneri = test: Antibacterial activity against Shigella flexneris ATCC 12022 assessed as bacterial growth inhibition incubated for 18 hrs by microdilution method; assay type: functional
# Bacillus subtilis = test: Antibacterial activity against Bacillus subtilis ATCC 6633 assessed as bacterial growth inhibition incubated for 18 hrs by microdilution method; assay type: functional
# Escherichia coli = test: Antibacterial activity against Escherichia coli ATCC 25922 assessed as bacterial growth inhibition incubated for 18 hrs by microdilution method; assay type: functional
# [1] = test system: Staphylococcus epidermidis; test: Antibacterial activity against Staphylococcus epidermidis ATCC 12228 assessed as bacterial growth inhibition incubated for 18 hrs by microdilution method; assay type: functional
# Staphylococcus aureus = test: Antibacterial activity against Staphylococcus aureus ATCC 25923 assessed as bacterial growth inhibition incubated for 18 hrs by microdilution method; assay type: functional
# Streptococcus pneumoniae = test: Antibacterial activity against Streptococcus pneumoniae ATCC 49619 assessed as bacterial growth inhibition incubated for 18 hrs by microdilution method; assay type: functional
# Influenza A virus = test: Antiviral activity against PR8-GFP transfected IAV infected in MDCK cells assessed as inhibition of viral replication at MOI of 0.01 at 10 uM preincubated for 8 hrs followed by infected with virus incubated for 24 hrs by fluorescence microscope analysis; assay type: functional, organism-based; conditions: time 32.0 hrs
# [2] = test system: Vesicular stomatitis virus; test: Antiviral activity against GFP transfected VSV infected in MDCK cells assessed as inhibition of viral replication at MOI of 0.1 at 10 uM preincubated for 8 hrs followed by infected with virus incubated for 24 hrs by fluorescence microscope analysis; assay type: functional, organism-based; conditions: time 32.0 hrs
# [3] = test system: Vesicular stomatitis virus; test: Antiviral activity against GFP transfected VSV infected in MDCK cells assessed as inhibition of viral replication at MOI of 0.1 at 10 uM preincubated for 8 hrs followed by infected with virus incubated for 24 hrs by flow cytometry (reference value: 51.3+/-1.1%); assay type: functional; set-up: scale not given: the % may be the effect or the level left; conditions: time 32 hrs
SMILES,MIC (Micrococcus luteus) [µg/mL],MIC (Shigella flexneri) [µg/mL],MIC (Bacillus subtilis) [µg/mL],MIC (Escherichia coli) [µg/mL],MIC [1] [µg/mL],MIC (Staphylococcus aureus) [µg/mL],MIC (Streptococcus pneumoniae) [µg/mL],Activity (Influenza A virus),Activity [2],Activity [3] [%]
CC[C@H]1OC(=O)[C@H](C)[C@@H](O[C@H]2C[C@@](C)(OC)[C@@H](O)[C@H](C)O2)[C@H](C)[C@@H](O[C@@H]2O[C@H](C)C[C@H](N(C)C)[C@H]2O)[C@](C)(OC)C[C@@H](C)C(=O)[C@H](C)[C@@H](O)[C@]1(C)O [CLARITHROMYCIN],< 0.125,< 0.125,< 0.125,2,0.25,0.25,< 0.125,–,–,–
Cc1ccc2c(c1)CC[C@@H]1C(C)(C)[C@H](O)[C@H](O)C[C@@]21C,> 64,> 64,> 64,> 64,> 64,> 64,> 64,–,–,–
Cc1cc2c(cc1O)[C@]1(C)C[C@@H](O)[C@@H](O)C(C)(C)C1=CC2=O,> 64,> 64,> 64,> 64,> 64,> 64,> 64,–,–,–
Cc1cc2c(cc1O)[C@]1(C)C[C@@H](O)[C@@H](O)C(C)(C)[C@H]1CC2=O,> 64,> 64,> 64,> 64,> 64,> 64,> 64,–,–,–
CC1=CC2=CC[C@@H]3C(C)(C)[C@H](O)[C@H](O)C[C@@]3(C)[C@@H]2CC1=O,> 64,> 64,> 64,> 64,> 64,> 64,> 64,–,–,–
C=Cc1ccc2c(c1)CC[C@@H]1C(C)(C)[C@H](O)[C@H](O)C[C@@]21C,> 64,> 64,> 64,> 64,> 64,> 64,> 64,–,–,–
C=CC1=C(C)C(=O)C=C2[C@]1(O)CC[C@@H]1C(C)(C)[C@H](O)[C@H](O)C[C@@]21C,> 64,> 64,> 64,> 64,> 64,> 64,> 64,–,–,–
C=Cc1c(C)c(O)cc2c1CC[C@@H]1C(C)(C)[C@H](O)[C@H](O)C[C@@]21C,16,12,12,> 64,12,12,16,Active,Active,3.4
Cc1cc2c(cc1O)[C@]1(C)C[C@@H](O)[C@@H](O)C(C)(C)[C@H]1CC2,32,32,32,> 64,32,32,32,–,–,–
